Results reported in the supplement of paper PMC10307832.

What was measured:
Assay in all cases: relative viability (nuclei count vs DMSO), 5 days (fraction); higher = more cells survive
NCI-H727 = tested on: NCI-H727
Summary of the method: (§1)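 The day after seeding in 1536-well plates, lung cancer cell lines were treated by pin tool with a single drug, or with a fixed anchor-drug dose together with five library-drug doses (not always all listed) in √10 steps. After 5 days, a combined fix-and-stain solution (final 0.05% Triton X-100, 1% formaldehyde, 1 ug/ml Hoechst) was added. Nuclei counted on 4× images gave relative viability as treated counts over vehicle counts, reported as the median of duplicate plates.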

NCI-H650 = tested on: NCI-H650
Summary of the method: as §1

NCI-H1755 = tested on: NCI-H1755
Summary of the method: as §1

SW 900 = tested on: SW 900
Summary of the method: as §1

NCI-H1437 = tested on: NCI-H1437
Summary of the method: as §1

NCI-H2126 = tested on: NCI-H2126
Summary of the method: as §1

NCI-H358 = tested on: NCI-H358
Summary of the method: as §1

NCI-H2170 = tested on: NCI-H2170
Summary of the method: as §1

NCI-H1734 = tested on: NCI-H1734
Summary of the method: as §1

BEN = tested on: BEN
Summary of the method: as §1

LU99A = tested on: LU99A
Summary of the method: as §1

HCC-44 = tested on: HCC-44
Summary of the method: as §1

EMC-BAC-2 = tested on: EMC-BAC-2
Summary of the method: as §1

NCI-H3122 = tested on: NCI-H3122
Summary of the method: as §1

LC-2-ad = tested on: LC-2-ad
Summary of the method: as §1

HCC-15 = tested on: HCC-15
Summary of the method: as §1

HOP-62 = tested on: HOP-62
Summary of the method: as §1

NCI-H1915 = tested on: NCI-H1915
Summary of the method: as §1

NCI-H1395 = tested on: NCI-H1395
Summary of the method: as §1

Cc1cn(-c2cc(NC(=O)c3ccc(C)c(Nc4nccc(-c5cccnc5)n4)c3)cc(C(F)(F)F)c2)cn1 [Nilotinib] + NC(=O)Nc1cc(-c2cccc(F)c2)sc1C(=O)N[C@H]1CCCNC1 [AZD7762] (partner 0.2 µM)
relative viability (NCI-H727; first compound 0.001 µM): 0.574
relative viability (NCI-H727; first compound 0.003162 µM): 0.528
relative viability (NCI-H727; first compound 0.01 µM): 0.456
relative viability (NCI-H727; first compound 0.03162 µM): 0.573
relative viability (NCI-H727; first compound 0.1 µM): 0.58
relative viability (NCI-H650; first compound 0.001 µM): 1.08
relative viability (NCI-H650; first compound 0.003162 µM): 1.01
relative viability (NCI-H650; first compound 0.01 µM): 0.914
relative viability (NCI-H650; first compound 0.03162 µM): 0.918
relative viability (NCI-H650; first compound 0.1 µM): 0.721
relative viability (NCI-H1755; first compound 0.001 µM): 0.412
relative viability (NCI-H1755; first compound 0.003162 µM): 0.499
relative viability (NCI-H1755; first compound 0.01 µM): 0.399
relative viability (NCI-H1755; first compound 0.03162 µM): 0.352
relative viability (NCI-H1755; first compound 0.1 µM): 0.4
relative viability (SW 900; first compound 0.003162 µM): 0.479
relative viability (SW 900; first compound 0.01 µM): 0.575
relative viability (SW 900; first compound 0.03162 µM): 0.369
relative viability (SW 900; first compound 0.1 µM): 0.304
relative viability (NCI-H1437; first compound 0.001 µM): 1.16
relative viability (NCI-H1437; first compound 0.003162 µM): 0.888
relative viability (NCI-H1437; first compound 0.01 µM): 1.12
relative viability (NCI-H1437; first compound 0.03162 µM): 0.899
relative viability (NCI-H1437; first compound 0.1 µM): 1.1
relative viability (NCI-H2126; first compound 0.001 µM): 0.965
relative viability (NCI-H2126; first compound 0.003162 µM): 1.14
relative viability (NCI-H2126; first compound 0.01 µM): 1.06
relative viability (NCI-H2126; first compound 0.03162 µM): 0.962
relative viability (NCI-H2126; first compound 0.1 µM): 0.606
relative viability (NCI-H358; first compound 0.001 µM): 0.458
relative viability (NCI-H358; first compound 0.003162 µM): 0.539
relative viability (NCI-H358; first compound 0.01 µM): 0.556
relative viability (NCI-H358; first compound 0.03162 µM): 0.459
relative viability (NCI-H358; first compound 0.1 µM): 0.523
relative viability (NCI-H2170; first compound 0.001 µM): 0.744
relative viability (NCI-H2170; first compound 0.003162 µM): 1.32
relative viability (NCI-H2170; first compound 0.01 µM): 0.856
relative viability (NCI-H2170; first compound 0.03162 µM): 0.602
relative viability (NCI-H2170; first compound 0.1 µM): 0.758
relative viability (NCI-H1734; first compound 0.001 µM): 0.498
relative viability (NCI-H1734; first compound 0.003162 µM): 0.617
relative viability (NCI-H1734; first compound 0.01 µM): 0.558
relative viability (NCI-H1734; first compound 0.03162 µM): 0.387
relative viability (NCI-H1734; first compound 0.1 µM): 0.219
relative viability (BEN; first compound 0.001 µM): 0.76
relative viability (BEN; first compound 0.003162 µM): 0.649
relative viability (BEN; first compound 0.01 µM): 0.589
relative viability (BEN; first compound 0.03162 µM): 0.6
relative viability (BEN; first compound 0.1 µM): 0.53
relative viability (LU99A; first compound 0.001 µM): 0.247
relative viability (LU99A; first compound 0.003162 µM): 0.513
relative viability (LU99A; first compound 0.01 µM): 0.498
relative viability (LU99A; first compound 0.03162 µM): 0.33
relative viability (LU99A; first compound 0.1 µM): 0.199
relative viability (HCC-44; first compound 0.001 µM): 0.969
relative viability (HCC-44; first compound 0.003162 µM): 1
relative viability (HCC-44; first compound 0.01 µM): 0.996
relative viability (HCC-44; first compound 0.1 µM): 0.923
relative viability (EMC-BAC-2; first compound 0.001 µM): 1.05
relative viability (EMC-BAC-2; first compound 0.003162 µM): 1.02
relative viability (EMC-BAC-2; first compound 0.01 µM): 1.14
relative viability (EMC-BAC-2; first compound 0.03162 µM): 1.02
relative viability (EMC-BAC-2; first compound 0.1 µM): 1.03
relative viability (NCI-H3122; first compound 0.001 µM): 0.965
relative viability (NCI-H3122; first compound 0.003162 µM): 1.24
relative viability (NCI-H3122; first compound 0.01 µM): 1.37
relative viability (NCI-H3122; first compound 0.03162 µM): 0.967
relative viability (NCI-H3122; first compound 0.1 µM): 0.382
relative viability (LC-2-ad; first compound 0.001 µM): 0.855
relative viability (LC-2-ad; first compound 0.003162 µM): 1.01
relative viability (LC-2-ad; first compound 0.01 µM): 1.02
relative viability (LC-2-ad; first compound 0.03162 µM): 0.748
relative viability (LC-2-ad; first compound 0.1 µM): 0.377
relative viability (HCC-15; first compound 0.001 µM): 1.1
relative viability (HCC-15; first compound 0.003162 µM): 1.28
relative viability (HCC-15; first compound 0.01 µM): 1.39
relative viability (HCC-15; first compound 0.03162 µM): 1.25
relative viability (HCC-15; first compound 0.1 µM): 1.19
relative viability (HOP-62; first compound 0.001 µM): 0.57
relative viability (HOP-62; first compound 0.003162 µM): 0.549
relative viability (HOP-62; first compound 0.01 µM): 0.595
relative viability (HOP-62; first compound 0.03162 µM): 0.271
relative viability (NCI-H1915; first compound 0.001 µM): 0.682
relative viability (NCI-H1915; first compound 0.003162 µM): 0.683
relative viability (NCI-H1915; first compound 0.01 µM): 0.718
relative viability (NCI-H1915; first compound 0.03162 µM): 0.67
relative viability (NCI-H1915; first compound 0.1 µM): 0.619
relative viability (NCI-H1395; first compound 0.001 µM): 0.4
relative viability (NCI-H1395; first compound 0.01 µM): 0.37
relative viability (NCI-H1395; first compound 0.03162 µM): 0.361
relative viability (NCI-H1395; first compound 0.1 µM): 0.362

CN1CCN(CCOc2cc(OC3CCOCC3)c3c(Nc4c(Cl)ccc5c4OCO5)ncnc3c2)CC1 [Saracatinib] + NC(=O)Nc1cc(-c2cccc(F)c2)sc1C(=O)N[C@H]1CCCNC1 [AZD7762] (partner 0.2 µM)
relative viability (NCI-H727; first compound 0.02 µM): 0.683
relative viability (NCI-H727; first compound 0.2 µM): 0.522
relative viability (NCI-H727; first compound 0.6325 µM): 0.616
relative viability (NCI-H727; first compound 2 µM): 0.401
relative viability (NCI-H650; first compound 0.02 µM): 0.984
relative viability (NCI-H650; first compound 0.2 µM): 1.04
relative viability (NCI-H650; first compound 0.6325 µM): 0.98
relative viability (NCI-H650; first compound 2 µM): 0.997
relative viability (NCI-H1755; first compound 0.02 µM): 0.438
relative viability (NCI-H1755; first compound 0.2 µM): 0.41
relative viability (NCI-H1755; first compound 0.6325 µM): 0.465
relative viability (NCI-H1755; first compound 2 µM): 0.372
relative viability (SW 900; first compound 0.02 µM): 0.696
relative viability (SW 900; first compound 0.2 µM): 0.545
relative viability (SW 900; first compound 0.6325 µM): 0.533
relative viability (SW 900; first compound 2 µM): 0.492
relative viability (NCI-H1437; first compound 0.02 µM): 1.12
relative viability (NCI-H1437; first compound 0.2 µM): 1.17
relative viability (NCI-H1437; first compound 0.6325 µM): 1.17
relative viability (NCI-H1437; first compound 2 µM): 1.07
relative viability (NCI-H2126; first compound 0.02 µM): 1
relative viability (NCI-H2126; first compound 0.2 µM): 0.883
relative viability (NCI-H2126; first compound 0.6325 µM): 1.01
relative viability (NCI-H2126; first compound 2 µM): 0.993
relative viability (NCI-H358; first compound 0.02 µM): 0.668
relative viability (NCI-H358; first compound 0.2 µM): 0.418
relative viability (NCI-H358; first compound 0.6325 µM): 0.364
relative viability (NCI-H358; first compound 2 µM): 0.318
relative viability (NCI-H2170; first compound 0.02 µM): 0.867
relative viability (NCI-H2170; first compound 0.2 µM): 0.803
relative viability (NCI-H2170; first compound 0.6325 µM): 0.872
relative viability (NCI-H2170; first compound 2 µM): 0.506
relative viability (NCI-H1734; first compound 0.02 µM): 0.537
relative viability (NCI-H1734; first compound 0.6325 µM): 0.622
relative viability (NCI-H1734; first compound 2 µM): 0.566
relative viability (BEN; first compound 0.02 µM): 0.906
relative viability (BEN; first compound 0.2 µM): 0.511
relative viability (BEN; first compound 0.6325 µM): 0.847
relative viability (BEN; first compound 2 µM): 0.713
relative viability (LU99A; first compound 0.02 µM): 0.374
relative viability (LU99A; first compound 0.2 µM): 0.279
relative viability (LU99A; first compound 0.6325 µM): 0.31
relative viability (LU99A; first compound 2 µM): 0.325
relative viability (HCC-44; first compound 0.02 µM): 1.07
relative viability (HCC-44; first compound 0.2 µM): 0.941
relative viability (HCC-44; first compound 0.6325 µM): 1.03
relative viability (HCC-44; first compound 2 µM): 1.01
relative viability (EMC-BAC-2; first compound 0.02 µM): 1.12
relative viability (EMC-BAC-2; first compound 0.2 µM): 1.09
relative viability (EMC-BAC-2; first compound 0.6325 µM): 1.09
relative viability (EMC-BAC-2; first compound 2 µM): 0.946
relative viability (NCI-H3122; first compound 0.02 µM): 0.97
relative viability (NCI-H3122; first compound 0.2 µM): 0.922
relative viability (NCI-H3122; first compound 0.6325 µM): 0.889
relative viability (NCI-H3122; first compound 2 µM): 0.698
relative viability (LC-2-ad; first compound 0.02 µM): 0.841
relative viability (LC-2-ad; first compound 0.2 µM): 0.778
relative viability (LC-2-ad; first compound 0.6325 µM): 0.835
relative viability (LC-2-ad; first compound 2 µM): 0.726
relative viability (HCC-15; first compound 0.02 µM): 1.29
relative viability (HCC-15; first compound 0.2 µM): 0.874
relative viability (HCC-15; first compound 0.6325 µM): 1.14
relative viability (HCC-15; first compound 2 µM): 1.21
relative viability (HOP-62; first compound 0.02 µM): 0.945
relative viability (HOP-62; first compound 0.2 µM): 0.614
relative viability (HOP-62; first compound 0.6325 µM): 0.707
relative viability (HOP-62; first compound 2 µM): 0.905
relative viability (NCI-H1915; first compound 0.02 µM): 0.632
relative viability (NCI-H1915; first compound 0.2 µM): 0.639
relative viability (NCI-H1915; first compound 0.6325 µM): 0.684
relative viability (NCI-H1915; first compound 2 µM): 0.696
relative viability (NCI-H1395; first compound 0.02 µM): 0.404
relative viability (NCI-H1395; first compound 0.2 µM): 0.397
relative viability (NCI-H1395; first compound 0.6325 µM): 0.388
relative viability (NCI-H1395; first compound 2 µM): 0.382
